Data as given in ChEMBL document CHEMBL3039007, “Structure-based identification of OATP1B1/3 inhibitors” (Mol Pharmacol, 2013).
Residues, ends and D or L forms follow the SMILES beside them.

Assays:
[1] = biological target: T1, Solute carrier organic anion transporter family member 1B1 (Homo sapiens, UniProt Q9Y6L6); conditions: chinese hamster, cho, 10 µM
T1 sequence (Q9Y6L6 whole entry): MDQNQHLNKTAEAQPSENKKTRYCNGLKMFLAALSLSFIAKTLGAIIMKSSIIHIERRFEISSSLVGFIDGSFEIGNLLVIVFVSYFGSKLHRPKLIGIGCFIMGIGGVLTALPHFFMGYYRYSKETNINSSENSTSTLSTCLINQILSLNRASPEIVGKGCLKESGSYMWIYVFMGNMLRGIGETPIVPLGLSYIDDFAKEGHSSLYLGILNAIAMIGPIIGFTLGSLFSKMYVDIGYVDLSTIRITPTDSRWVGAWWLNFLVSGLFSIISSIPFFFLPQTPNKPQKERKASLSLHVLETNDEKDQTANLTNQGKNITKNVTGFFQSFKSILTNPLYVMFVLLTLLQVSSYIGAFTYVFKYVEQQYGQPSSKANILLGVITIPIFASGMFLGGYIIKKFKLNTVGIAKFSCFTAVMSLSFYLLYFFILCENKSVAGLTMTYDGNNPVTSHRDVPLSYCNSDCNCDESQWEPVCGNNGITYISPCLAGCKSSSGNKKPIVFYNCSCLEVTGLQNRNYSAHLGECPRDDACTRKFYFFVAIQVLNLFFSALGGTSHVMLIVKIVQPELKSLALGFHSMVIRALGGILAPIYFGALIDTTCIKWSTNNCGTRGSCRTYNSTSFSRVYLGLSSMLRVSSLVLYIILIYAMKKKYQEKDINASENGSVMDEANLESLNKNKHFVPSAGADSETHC

[2] = biological target: T2, Solute carrier organic anion transporter family member 1B3 (Homo sapiens, UniProt Q9NPD5); conditions: chinese hamster, cho, 10 µM
T2 sequence (Q9NPD5 whole entry): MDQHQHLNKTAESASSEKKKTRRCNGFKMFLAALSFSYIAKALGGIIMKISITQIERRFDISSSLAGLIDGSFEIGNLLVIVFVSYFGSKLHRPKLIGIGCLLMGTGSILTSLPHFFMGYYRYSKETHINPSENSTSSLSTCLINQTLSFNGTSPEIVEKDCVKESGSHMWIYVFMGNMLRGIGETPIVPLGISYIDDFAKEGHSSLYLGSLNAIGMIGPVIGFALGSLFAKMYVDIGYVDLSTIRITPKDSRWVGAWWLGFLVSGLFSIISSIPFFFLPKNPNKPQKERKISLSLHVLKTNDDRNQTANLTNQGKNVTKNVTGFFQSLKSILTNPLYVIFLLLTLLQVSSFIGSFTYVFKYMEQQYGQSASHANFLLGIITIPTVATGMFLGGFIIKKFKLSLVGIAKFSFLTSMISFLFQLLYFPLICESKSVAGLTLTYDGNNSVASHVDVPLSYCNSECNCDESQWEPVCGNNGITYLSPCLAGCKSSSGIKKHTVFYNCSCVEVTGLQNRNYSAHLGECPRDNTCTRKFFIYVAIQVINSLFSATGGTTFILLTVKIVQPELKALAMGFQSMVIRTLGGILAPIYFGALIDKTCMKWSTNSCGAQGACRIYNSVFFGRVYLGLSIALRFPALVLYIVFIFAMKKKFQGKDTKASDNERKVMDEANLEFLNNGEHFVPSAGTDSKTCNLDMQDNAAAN

| Compound | residual activity [1] [%] | residual activity [2] [%] |
| --- | --- | --- |
| CC(C)(C)N.CCC[C@H](N[C@@H](C)C(=O)N1[C@H](C(=O)O)C[C@@H]2CCCC[C@@H]21)C(=O)OCC [PERINDOPRIL ERBUMINE] | 107.5 | 81.39 |
| OCCN1CCN(CCCN2c3ccccc3Sc3ccc(Cl)cc32)CC1 [PERPHENAZINE] | 130 | 113.3 |
| OCC(O)C(O)C(O)C(O)C(O)CO (stereo not drawn) [PERSEITOL] | 60.19 | 73.5 |
| CO[C@H]1[C@H](O)[C@H](O[C@H]2CC[C@@]3(C=O)[C@H](CC[C@@H]4[C@@H]3CC[C@]3(C)[C@@H](C5=CC(=O)OC5)CC[C@]43O)C2)O[C@@H](C)[C@@H]1O [PERUVOSIDE] | 62.43 | 112.7 |
| COc1c(C(C)C)oc2cc3oc(=O)ccc3cc12 [PEUCEDANIN] | 101.3 | 105.2 |
| CC(C)=CCc1c(O)cc2oc(C)cc(=O)c2c1O [PEUCENIN] | 137.1 | 169 |
| NC(=O)NC(=O)Cc1ccccc1 [PHENACEMIDE] | 93.72 | 104.7 |
| CCOc1ccc(NC(C)=O)cc1 [PHENACETIN] | 55.67 | 98.3 |
| Cl.NCC(=O)c1ccccc1 [PHENACYLAMINE HYDROCHLORIDE] | 77.38 | 95.9 |
| Cl.Nc1ccc(/N=N/c2ccccc2)c(N)n1 [PHENAZOPYRIDINE HYDROCHLORIDE] | 115.4 | 115.3 |
| NNCCc1ccccc1.O=S(=O)(O)O [PHENELZINE SULFATE] | 91.37 | 110.5 |
| CC(Oc1ccccc1)C(=O)N[C@@H]1C(=O)N2[C@@H]1SC(C)(C)[C@@H]2C(=O)[O-].[K+] (stereo partly drawn) [PHENETHICILLIN POTASSIUM] | 83.14 | 90.72 |
| O=C1c2ccccc2C(=O)C1c1ccccc1 [PHENINDIONE] | 89.42 | 128.9 |
| CN(C)CCC(c1ccccc1)c1ccccn1.O=C(O)/C=C\C(=O)O (stereo not drawn) [PHENIRAMINE MALEATE] | 72.53 | 103.2 |
| O=C1OC(c2ccc(O)cc2)(c2ccc(O)cc2)c2ccccc21 [PHENOLPHTHALEIN] | 20.62 | 37.96 |
| CC(C)=CC1C(C(=O)OCc2cccc(Oc3ccccc3)c2)C1(C)C (stereo not drawn) [PHENOTHRIN] | 157.5 | 107.3 |
| CC(COc1ccccc1)N(CCCl)Cc1ccccc1.Cl (stereo not drawn) [PHENOXYBENZAMINE HYDROCHLORIDE] | 101.5 | 88.73 |
| Cc1ccc(N(CC2=NCCN2)c2cccc(O)c2)cc1.Cl [PHENTOLAMINE HYDROCHLORIDE] | 85.39 | 86.01 |
| O=C(Cc1ccccc1)NO [PHENYLACETOHYDROXAMIC ACID] | 58.46 | 75.25 |
| N[C@@H](Cc1ccccc1)C(=O)N[C@@H](Cc1ccc(O)cc1)C(=O)O [PHENYLALANYLTYROSINE] (H-Phe-Tyr-OH) | 78.59 | 68.6 |
| CNC[C@H](O)c1cccc(O)c1.Cl [PHENYLEPHRINE HYDROCHLORIDE] | 91.9 | 106.2 |
| O=C1N=C([O-])NC1(c1ccccc1)c1ccccc1.[Na+] [PHENYTOIN SODIUM] | 95.94 | 97.47 |
| O=C(CCc1ccc(O)cc1)c1c(O)cc(O)cc1O [PHLORETIN] | 83.5 | 98.4 |
| O=C(CCc1ccc(O)cc1)c1c(O)cc(O)cc1O[C@@H]1O[C@H](CO)[C@@H](O)[C@H](O)[C@H]1O [PHLORIZIN] | 50.32 | 106.3 |
| CCOP(=S)(OCC)SCSCC [PHORATE] | 102.7 | 107.3 |

| Compound | residual activity [1] [%] | residual activity [2] [%] |
| --- | --- | --- |
| CCOP(=S)(OCC)SCn1c(=O)oc2cc(Cl)ccc21 [PHOSALONE] | 116.2 | 124 |
| O=C(O)c1ccccc1C(=O)Nc1ccc(S(=O)(=O)Nc2nccs2)cc1 [PHTHALYLSULFATHIAZOLE] | 115.5 | 107 |
| COc1cc(O)c2c(c1)C(=O)c1cc(C)cc(O)c1C2=O [PHYSCION] | 111.9 | 112.8 |
| CNC(=O)Oc1ccc2c(c1)[C@]1(C)CCN(C)[C@@H]1N2C.O=C(O)c1ccccc1O [PHYSOSTIGMINE SALICYLATE] | 116 | 110.8 |
| CNC(=O)Oc1ccc2c(c1)[C@]1(C)CCN(C)[C@@H]1N2C.CNC(=O)Oc1ccc2c(c1)[C@]1(C)CCN(C)[C@@H]1N2C.O=S(=O)(O)O [PHYSOSTIGMINE SULFATE] | 101.7 | 99.93 |
| CNC(=O)Oc1ccc2c(c1)[C@]1(C)CCN(C)[C@@H]1N2C [PHYSOSTIGMINE] | 78.13 | 80.76 |
| CC(C)(O)[C@@H]1[C@H]2OC(=O)[C@@H]1[C@]1(O)C[C@H]3O[C@]34C(=O)O[C@H]2[C@]14C [PICROTIN] | 88.44 | 89.14 |
| C=C(C)[C@@H]1[C@H]2OC(=O)[C@@H]1[C@]1(O)C[C@H]3O[C@]34C(=O)O[C@H]2[C@]14C [PICROTOXININ] | 102.7 | 101.9 |
| CC[C@@H]1C(=O)OC[C@@H]1Cc1cncn1C.O=[N+]([O-])O [PILOCARPINE NITRATE] | 82.84 | 95.87 |
| CN1CCC(=C2c3ccccc3Sc3ccccc32)CC1.O=C(O)/C=C\C(=O)O [PIMETHIXENE MALEATE] | 83.52 | 104.8 |
| O=c1[nH]c2ccccc2n1C1CCN(CCCC(c2ccc(F)cc2)c2ccc(F)cc2)CC1 [PIMOZIDE] | 167.9 | 121.7 |
| COc1c(OC)c2occc2c2oc(=O)ccc12 [PIMPINELLIN] | 104.9 | 103.2 |
| CC(N/C(=N\C#N)Nc1ccncc1)C(C)(C)C (stereo not drawn) [PINACIDIL ANHYDROUS] | 96.43 | 90.66 |
| O=C1C[C@@H](c2ccccc2)Oc2cc(O)cc(O)c21 [PINOCEMBRIN] | 202 | 97.25 |
| Oc1cc(O)cc(/C=C/c2ccccc2)c1 [PINOSYLVIN] | 133.5 | 114.6 |
| CCc1ccc(CCOc2ccc(CC3SC(=O)NC3=O)cc2)nc1.Cl (stereo not drawn) [PIOGLITAZONE HYDROCHLORIDE] | 122.7 | 88.74 |
| CCn1cc(C(=O)O)c(=O)c2cnc(N3CCNCC3)nc21 [PIPEMIDIC ACID] | 111.8 | 131.1 |
| CC[N+]1(C)CCCC(OC(=O)C(O)(c2ccccc2)c2ccccc2)C1.[Br-] (stereo not drawn) [PIPENZOLATE BROMIDE] | 70.99 | 86.01 |
| C1CNCCN1 [PIPERAZINE] | 77.78 | 102.1 |
| CCN1CCCC(OC(=O)C(c2ccccc2)c2ccccc2)C1.Cl (stereo not drawn) [PIPERIDOLATE HYDROCHLORIDE] | 65.65 | 96 |
| O=C(/C=C/C=C/c1ccc2c(c1)OCO2)N1CCCCC1 [PIPERINE] | 186.2 | 97.82 |
| O=C(CCBr)N1CCN(C(=O)CCBr)CC1 [PIPOBROMAN] | 62.45 | 82.4 |
| Cc1nc2ccccn2c(=O)c1CCN1CCC(C(=O)c2ccc(F)cc2)CC1 [PIRENPERONE] | 93.87 | 102.6 |
| CN1CCN(CC(=O)N2c3ccccc3C(=O)Nc3cccnc32)CC1.Cl.Cl [PIRENZEPINE HYDROCHLORIDE] | 103.8 | 100.6 |
